Key:
[1] = Binding affinity towards 5-HT2 receptor from porcine cortical membranes using [3H]ketanserin
D(1A) dopamine receptor = D(1A) dopamine receptor (Sus scrofa, UniProt P50130); assay: Binding affinity towards D1 receptor from porcine striatal membranes using [3H]-SCH- 23390
D(3) dopamine receptor = D(3) dopamine receptor (Homo sapiens, UniProt P35462); assay: biochemical
Description: Binding affinity towards human D3 receptor using [3H]spiperone expressed in CHO cells

D(2) dopamine receptor [2] = target: T1, D(2) dopamine receptor (Homo sapiens, UniProt P14416); assay: biochemical
Description: Binding affinity towards human D2 short receptor using [3H]spiperone expressed in CHO cells

D(4) dopamine receptor = target: T2, D(4) dopamine receptor (Homo sapiens, UniProt P21917); assay: biochemical
T2 sequence (P21917 whole entry): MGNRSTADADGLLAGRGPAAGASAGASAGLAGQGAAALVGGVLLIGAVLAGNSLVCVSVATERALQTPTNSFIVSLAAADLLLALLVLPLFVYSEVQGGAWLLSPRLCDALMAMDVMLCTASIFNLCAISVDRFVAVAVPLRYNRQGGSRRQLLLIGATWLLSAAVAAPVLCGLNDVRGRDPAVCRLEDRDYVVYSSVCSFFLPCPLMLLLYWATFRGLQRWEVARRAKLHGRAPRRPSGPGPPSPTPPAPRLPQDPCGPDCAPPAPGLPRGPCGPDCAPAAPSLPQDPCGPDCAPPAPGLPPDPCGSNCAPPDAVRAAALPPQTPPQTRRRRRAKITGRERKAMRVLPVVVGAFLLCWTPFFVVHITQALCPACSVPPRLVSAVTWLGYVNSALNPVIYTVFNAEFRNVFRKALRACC
Description: Binding affinity towards human D4.4 receptor using [3H]spiperone expressed in CHO cells

D(2) dopamine receptor [3] = target: T1, D(2) dopamine receptor; assay: biochemical; remark: listed apart in the source
Description: Binding affinity towards human D2 long receptor using [3H]spiperone expressed in CHO cells

Sequence of D(3) dopamine receptor (P35462 whole entry): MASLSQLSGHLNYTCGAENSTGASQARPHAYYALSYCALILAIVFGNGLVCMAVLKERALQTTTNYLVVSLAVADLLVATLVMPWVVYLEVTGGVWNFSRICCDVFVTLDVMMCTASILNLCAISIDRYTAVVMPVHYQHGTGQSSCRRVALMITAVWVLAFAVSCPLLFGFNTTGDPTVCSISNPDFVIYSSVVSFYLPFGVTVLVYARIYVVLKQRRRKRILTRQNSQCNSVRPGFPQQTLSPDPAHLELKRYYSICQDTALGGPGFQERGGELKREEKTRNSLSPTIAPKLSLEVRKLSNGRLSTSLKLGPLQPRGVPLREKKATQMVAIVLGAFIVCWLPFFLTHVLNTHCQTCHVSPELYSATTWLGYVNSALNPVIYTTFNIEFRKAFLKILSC
T1 sequence (P14416 whole entry): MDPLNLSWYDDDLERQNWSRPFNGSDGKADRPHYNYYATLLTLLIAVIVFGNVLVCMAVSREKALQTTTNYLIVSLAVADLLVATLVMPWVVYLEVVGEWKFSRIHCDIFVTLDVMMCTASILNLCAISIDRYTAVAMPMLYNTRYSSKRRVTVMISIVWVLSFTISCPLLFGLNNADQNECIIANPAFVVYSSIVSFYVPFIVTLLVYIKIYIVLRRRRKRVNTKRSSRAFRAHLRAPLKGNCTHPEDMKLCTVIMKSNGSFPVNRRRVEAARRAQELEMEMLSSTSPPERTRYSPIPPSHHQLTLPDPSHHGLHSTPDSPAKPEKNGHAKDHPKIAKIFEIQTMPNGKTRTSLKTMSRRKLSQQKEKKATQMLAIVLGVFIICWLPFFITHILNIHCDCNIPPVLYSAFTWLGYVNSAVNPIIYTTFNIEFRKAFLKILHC
Sequence of D(1A) dopamine receptor (P50130 whole entry): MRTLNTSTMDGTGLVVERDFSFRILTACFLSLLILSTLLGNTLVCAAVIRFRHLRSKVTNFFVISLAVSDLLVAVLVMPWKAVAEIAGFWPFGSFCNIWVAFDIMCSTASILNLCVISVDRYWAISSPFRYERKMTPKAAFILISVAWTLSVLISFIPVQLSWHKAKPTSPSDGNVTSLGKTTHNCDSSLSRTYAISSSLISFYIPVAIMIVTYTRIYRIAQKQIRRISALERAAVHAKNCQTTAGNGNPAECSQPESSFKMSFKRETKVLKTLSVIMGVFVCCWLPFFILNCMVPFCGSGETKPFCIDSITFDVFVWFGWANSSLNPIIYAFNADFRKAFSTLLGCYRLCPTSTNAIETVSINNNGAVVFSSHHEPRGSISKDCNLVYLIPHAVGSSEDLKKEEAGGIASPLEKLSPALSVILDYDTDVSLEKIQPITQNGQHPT

Structure (SMILES)	Ki [1]	Ki (D(1A) dopamine receptor)	Ki (D(3) dopamine receptor)	Ki (D(2) dopamine receptor [2])	Ki (D(4) dopamine receptor)	Ki (D(2) dopamine receptor [3])
COc1ccccc1N1CCN(CCCCNC(=O)c2cc3cc(I)ccc3o2)CC1	230 nM	420 nM	1.4 nM	27 nM	46 nM	–
COc1ccccc1N1CCN(CCCCNC(=O)c2ccc(I)s2)CC1	690 nM	600 nM	2.4 nM	35 nM	31 nM	75 nM
O=C(NCCCCN1CCN(c2cccc(Cl)c2Cl)CC1)c1cc2cc(I)ccc2s1	290 nM	1400 nM	4.5 nM	140 nM	550 nM	450 nM
COc1ccccc1N1CCN(CCCCNC(=O)c2cc3cc(I)ccc3s2)CC1	250 nM	520 nM	0.86 nM	1 nM	42 nM	48 nM
O=C(NCCCCN1CCN(c2cccc(Cl)c2Cl)CC1)c1ccc(I)s1	210 nM	820 nM	1.4 nM	32 nM	130 nM	89 nM

Continued, values first:

Ki [1]	Ki (D(1A) dopamine receptor)	Ki (D(3) dopamine receptor)	Ki (D(2) dopamine receptor [2])	Ki (D(4) dopamine receptor)	Ki (D(2) dopamine receptor [3])	Structure (SMILES)
790 nM	3300 nM	–	430 nM	2200 nM	3200 nM	O=C(NCCCCN1CCN(c2cccc(Cl)c2Cl)CC1)c1cc2cc(I)ccc2o1
3000 nM	–	–	–	–	–	O=C(NCCCCN1CCN(c2cccc(Cl)c2Cl)CC1)c1cc2ccccc2s1

Reference: ChEMBL document CHEMBL1137095, “Synthesis and radioiodination of selective ligands for the dopamine D3 receptor subtype” (Bioorg Med Chem Lett, 2004)
